In patent US5605911A, “Use of alpha-2 adrenergic drugs to prevent adverse effects of NMDA receptor hypofunction (NRH)” (priority 1995, dated 1997):
Entries after “also recorded” stand apart in the source; their conditions may differ. Like-named read-outs stand apart in the source and are kept apart here.

What was measured:
[1] = tested on: PC/RS cortical neurons; assay: protection by anti-psychotic drugs against MK-801 (NRH)-induced vacuoles in rats; assay type: in vivo; conditions: Rattus norvegicus, Cortical neurone, ip
Method: Control animals received saline or DMSO, but no anti-psychotic drugs. Test animals were injected ip with an antipsychotic drug, listed above and in Table 2. Vacuoles were counted and data were processed as described in Example 1.

[2] = tested on: people addicted to cigarettes or opiates; conditions: cited from earlier work
[3] = tested on: α2 receptors; conditions: in words; cited from earlier work
[4] = tested on: pyramidal neurons in layers III and IV of the posterior cingulate (PC) and retrosplenial (RS) cortices; assay: protection by alpha-2 adrenergic agonists against MK-801 neurotoxicity (vacuolated PC/RS neurons) in rats; conditions: for ED50: Rattus norvegicus, Pyramidal neuron, ip; for relative potency in preventing the neurotoxic reaction: ranking in words among the four α2 agonists
Description: For each test agent, at least 17 rats were used and at least four doses tested.
The rats were sacrificed four hours after treatment, and brain tissue from the PC/RS region was histopathologically evaluated by previously described methods using double-blinded techniques (Olney et al 1991). The number of vacuolated PC and RS neurons were counted on each side of the brain at a rostrocaudal level immediately posterior to where the corpus callosum ceases decussating across the midline (approximately 5.6 mm caudal to Bregma; Paxinos & Watson, The Rat Brain in Stereotaxic Coordinates, 2d Ed., 1986).

[5] = tested on: chick embryo retina; assay: NMDA excitotoxicity in chick embryo retina segments, protection by MK-801 with or without alpha-2 agonist; assay type: cell-based; conditions: MK-801 500 nM; for cytopathology in retina incubated in NMDA plus MK-801, without or with α2 agonist: NMDA 40 μM, α2 agonist 500 nM to 100 μM, n=6 per condition
Method: These experiments were performed using segments of chick embryo retina. This is a widely used model for studying the production and prevention of excitotoxic phenomena, since it is simple and inexpensive. Chick tissue is used, since it tends to provide a better model of adult mammalian tissue than embryonic or juvenile mammalian tissue. Unlike newborn mammals, which are usually blind at birth, baby chicks can see quite well as soon as they emerge from the shell, and the NMDA receptors in chick retinal tissue are fully mature and functional.
In these tests, NMDA was introduced into the incubation medium in a concentration (40 μM) sufficient to produce a fully developed excitotoxic lesion within 30 min, displaying acute degeneration and necrosis of the majority of neurons in the inner layers of the retina.

[6] = tested on: sigma receptors; conditions: sigma and dopamine receptors; cited from earlier work
[7] = cited from earlier work
[8] = tested on: cerebral cortex; conditions: cited from earlier work
[9] = tested on: neurotoxic side effects caused by NMDA antagonists such as PCP or MK-801; conditions: Olney et al 1991, U.S. Pat. No. 5,034,400; cited from earlier work
[10] = compared to clonidine; cited from earlier work
[11] = tested on: alpha-2 adrenergic receptor; conditions: for shift of clonidine blocking curve: preliminary, combined with clonidine (n=4), yohimbine 1 mg/kg ip or rauwolscine 5 mg/kg ip
Method: The brains were processed and the severity of damage assessed as described in Example 1. Results were analyzed by analysis of variance (ANOVA) where the dose of xylazine was the covariate and the presence of yohimbine served as the classification (treatment) variable. The homogeneity of slopes assumption was tested by determining whether there was a significant interaction between the covariate and the treatment variable.

Structure (SMILES): Clc1ccc2c(c1)C(N1CCNCC1)=Nc1ccccc1O2 [Amoxapine]
- ED50 [1]: 75 mg/kg

Structure (SMILES): Clc1cccc(Cl)c1N=C1NCCN1 [Clonidine]
- reduction of withdrawal symptoms [2]: help reduce withdrawal symptoms in some recovering addicts
- affinity/selectivity for α2 over α1 receptors [3]: activate α2 receptors with higher affinity than they have for α1 receptors
- ED50 ([4]; 4 h): 0.044 mg/kg
- relative potency in preventing the neurotoxic reaction [4]: the most potent
- cytopathology in retina incubated in NMDA plus MK-801, without or with α2 agonist [5]: no cytopathology

Structure (SMILES): CN1CCN(C2=Nc3cc(Cl)ccc3Nc3ccccc32)CC1 [Clozapine]
- ED50 ([1]; protection against MK-801-induced vacuoles, confidence limits 25th & 75th percentiles in separate column, read-out: ED50): 3.2 mg/kg

Structure (SMILES): Cc1ccccc1NC(=N)Nc1ccccc1C [Di(2-tolyl)guanidine, di(2-tolyl)guanidine]
- ED50 [1]: 22.2 mg/kg

Structure (SMILES): CN1CCN(C2=Nc3cc(F)ccc3Cc3ccccc32)CC1 [Fluperlapine]
- ED50 [1]: 2.3 mg/kg

Structure (SMILES): N=C(N)N/N=C/c1c(Cl)cccc1Cl [Guanabenz]
- affinity/selectivity for α2 over α1 receptors [3]: activate α2 receptors with higher affinity than they have for α1 receptors
- ED50 ([4]; 4 h): 0.21 mg/kg
- relative potency in preventing the neurotoxic reaction [4]: intermediate

Structure (SMILES): O=C(CCCN1CCC(O)(c2ccc(Cl)cc2)CC1)c1ccc(F)cc1 [Haloperidol]
- receptor selectivity [6]: interact with both dopamine receptors and sigma receptors
- ED50 [1]: 5.1 mg/kg

Structure (SMILES): CNC1(c2ccccc2Cl)CCCCC1=O (stereo not drawn) [Ketamine]
- duration of action ([7]; ketamine, human anesthesia): about 15 minutes
- pathomorphological changes in brain ([8]; rat, in vivo): cause pathomorphological changes in the cerebral cortex of adult rats

Structure (SMILES): CN1CCN(C2=Nc3ccccc3Oc3ccc(Cl)cc32)CC1 [Loxapine]
- receptor selectivity [6]: interact with both dopamine receptors and sigma receptors
- ED50 [1]: 23.6 mg/kg

Structure (SMILES): C[C@]12N[C@H](Cc3ccccc31)c1ccccc12 [MK-801, (+)-5-methyl-10,11-dihydro-5H-di[a,d]-cyclohepten-5,10-imine]
- duration of action ([7]; in words): measured in days
- mean number of vacuolated neurons per section ([4]; MK-801 0.5 mg/kg sc plus vehicle, 4 h, SEM, n=26): 223±10.5 vacuolated neurons per section
- neurotoxic reaction to MK-801 ([4]; all control animals, MK-801 0.5 mg/kg sc): All control animals developed a neurotoxic reaction
- protection against excitotoxic damage ([5]; regardless of α2 agonist): completely protected against excitotoxic damage
- cytopathology in retina incubated in NMDA plus MK-801, without or with α2 agonist [5]: no cytopathology

Structure (SMILES): Cc1cc2c(s1)Nc1ccccc1N=C2N1CCN(C)CC1 [Olanzapine]
- ED50 [1]: 1.4 mg/kg

Structure (SMILES): C[C@@H]1CN(CCCn2c3ccccc3c3ccccc32)C[C@H](C)N1 [Rimcazole]
- receptor selectivity [6]: substantial affinity only for sigma receptors
- ED50 [1]: 17.8 mg/kg

Structure (SMILES): CSc1ccc2c(c1)N(CCC1CCCCN1C)c1ccccc1S2 (stereo not drawn) [Thioridazine]
- receptor selectivity [6]: interact with both dopamine receptors and sigma receptors
- ED50 [1]: 55.3 mg/kg

Structure (SMILES): CCNC1(c2cccs2)CCCCC1=O (stereo not drawn) [Tiletamine]
- pathomorphological changes in brain ([8]; adult rat, literature): cause pathomorphological changes in the cerebral cortex of adult rats

Structure (SMILES): Cc1cccc(C)c1N=C1NCCCS1 [Xylazine]
- affinity/selectivity for α2 over α1 receptors [3]: activate α2 receptors with higher affinity than they have for α1 receptors
- ED50 ([4]; 4 h): 2.4 mg/kg
- relative potency in preventing the neurotoxic reaction [4]: the least potent
- cytopathology in retina incubated in NMDA plus MK-801, without or with α2 agonist [5]: no cytopathology

Structure (SMILES): C[C@](N)(Cc1ccc(O)c(O)c1)C(=O)O [alpha-methyldopa]
- affinity/selectivity for α2 over α1 receptors [3]: activate α2 receptors with higher affinity than they have for α1 receptors

Structure (SMILES): CC(N)C(O)c1ccc(O)c(O)c1 (stereo not drawn) [alpha-methylnoradrenaline]
- affinity/selectivity for α2 over α1 receptors [3]: activate α2 receptors with higher affinity than they have for α1 receptors

Structure (SMILES): CCN1CCc2nc(N)oc2CC1 [azepexole]
- affinity/selectivity for α2 over α1 receptors [3]: activate α2 receptors with higher affinity than they have for α1 receptors; also recorded: substantially more selectivity for α2 receptors than for α1 receptors, when compared to clonidine; also recorded: substantially higher selectivity for α2 receptors (and substantially lower affinity for α1 receptors) than clonidine

Structure (SMILES): CN1[C@@H]2CC[C@H]1C[C@@H](OC(c1ccccc1)c1ccccc1)C2 [benztropine]
- block of neurotoxic side effects caused by NMDA antagonists [9]: can block the neurotoxic side effects caused by NMDA antagonists

Structure (SMILES): OC(CCN1CCCCC1)(c1ccccc1)C1CC2C=CC1C2 (stereo not drawn) [biperiden]
- block of neurotoxic side effects caused by NMDA antagonists [9]: can block the neurotoxic side effects caused by NMDA antagonists

Structure (SMILES): Cc1cccc([C@H](C)c2cnc[nH]2)c1C [dexmedetomidine]
- affinity/selectivity for α2 over α1 receptors [3]: activate α2 receptors with higher affinity than they have for α1 receptors; also recorded: substantially more selectivity for α2 receptors than for α1 receptors, when compared to clonidine; also recorded: substantially higher selectivity for α2 receptors (and substantially lower affinity for α1 receptors) than clonidine

Structure (SMILES): N=C(N)NC(=O)Cc1c(Cl)cccc1Cl [guanfacine]
- hypotensive side effects [10]: substantially lower activity in reducing blood pressure than clonidine
- affinity/selectivity for α2 over α1 receptors [3]: activate α2 receptors with higher affinity than they have for α1 receptors; also recorded: substantially higher selectivity for α2 receptors (and substantially lower affinity for α1 receptors) than clonidine

Structure (SMILES): Cc1cccc(C(C)c2cnc[nH]2)c1C (stereo not drawn) [medetomidine]
- affinity/selectivity for α2 over α1 receptors [3]: activate α2 receptors with higher affinity than they have for α1 receptors

Structure (SMILES): Clc1cc(I)cc(Cl)c1NC1=NCCN1 [p-Iodoclonidine]
- affinity/selectivity for α2 over α1 receptors [3]: activate α2 receptors with higher affinity than they have for α1 receptors
- ED50 ([4]; 4 h): 1.3 mg/kg
- relative potency in preventing the neurotoxic reaction [4]: intermediate

Structure (SMILES): OC(CCN1CCCC1)(c1ccccc1)C1CCCCC1 (stereo not drawn) [procyclidine]
- block of neurotoxic side effects caused by NMDA antagonists [9]: can block the neurotoxic side effects caused by NMDA antagonists

Structure (SMILES): COC(=O)[C@H]1[C@H]2C[C@H]3c4[nH]c5ccccc5c4CCN3C[C@H]2CC[C@@H]1O [rauwolscine]
- shift of clonidine blocking curve [11]: A similar shifting of the curve to the right

Structure (SMILES): C1COC(NC(C2CC2)C2CC2)=N1 [rilmenidine]
- affinity/selectivity for α2 over α1 receptors [3]: activate α2 receptors with higher affinity than they have for α1 receptors

Structure (SMILES): C=CCC1(C(C)CCC)C(=O)NC(=O)NC1=O (stereo not drawn) [secobarbitol]
- block of neurotoxic side effects caused by NMDA antagonists [9]: can block the neurotoxic side effects caused by NMDA antagonists

Structure (SMILES): Clc1ccc2nsnc2c1NC1=NCCN1 [tizanidine]
- affinity/selectivity for α2 over α1 receptors [3]: activate α2 receptors with higher affinity than they have for α1 receptors

Structure (SMILES): OC(CCN1CCCCC1)(c1ccccc1)C1CCCCC1 (stereo not drawn) [trihexyphenidyl]
- block of neurotoxic side effects caused by NMDA antagonists [9]: can block the neurotoxic side effects caused by NMDA antagonists

Structure (SMILES): COC(=O)[C@@H]1[C@H]2C[C@H]3c4[nH]c5ccccc5c4CCN3C[C@@H]2CC[C@@H]1O [yohimbine]
- shift of clonidine blocking curve [11]: A similar shifting of the curve to the right
- effect on xylazine's protection ([11]; yohimbine 1 mg/kg ip with various doses of xylazine, MK-801-treated rats, F(1,42)=9.40, p=0.004): significantly interfered with xylazine's protection
- shift of xylazine blocking curve ([11]; yohimbine 1 mg/kg ip, MK-801-treated rats, FIG. 2): shifted the blocking curve to the right
